The NIST ThermoML archive (doi:10.1016/j.tca.2009.06.004)
Numbers after ± are expanded uncertainties.

Experiment: excess molar enthalpy (molar enthalpy of mixing); xn = mol fraction of the nth substance listed
Settings: 298.15 K, 101 kPa, Liquid, Calvet calorimetry

OCCO [1,2-ethanediol] + O
Settings	excess molar enthalpy [kcal/mol]
x2 = 0.1014	-0.0416 ± 0.000717
x2 = 0.1994	-0.0805 ± 0.000956
x2 = 0.2091	-0.0829 ± 0.0012
x2 = 0.3051	-0.115 ± 0.00143
x2 = 0.3674	-0.134 ± 0.00167
x2 = 0.3995	-0.141 ± 0.00167
x2 = 0.4807	-0.153 ± 0.00167
x2 = 0.5455	-0.159 ± 0.00191
x2 = 0.6144	-0.167 ± 0.00191
x2 = 0.669	-0.171 ± 0.00191
x2 = 0.7949	-0.163 ± 0.00191
x2 = 0.8656	-0.136 ± 0.00167
x2 = 0.915	-0.101 ± 0.0012

OCCOCCO [diethylene glycol] + CCO
Settings	excess molar enthalpy [kcal/mol]
x2 = 0.1048	0.0182 ± 0.000478
x2 = 0.1991	0.0308 ± 0.000478
x2 = 0.2967	0.0461 ± 0.000717
x2 = 0.4009	0.0595 ± 0.000956
x2 = 0.4963	0.0626 ± 0.000956
x2 = 0.5879	0.0669 ± 0.000956
x2 = 0.7041	0.0602 ± 0.000956
x2 = 0.7958	0.0488 ± 0.000717
x2 = 0.9006	0.0289 ± 0.000478

OCCOCCO [diethylene glycol] + O
Settings	excess molar enthalpy [kcal/mol]
x2 = 0.1026	-0.0657 ± 0.000956
x2 = 0.2012	-0.122 ± 0.00143
x2 = 0.2094	-0.125 ± 0.00143
x2 = 0.3067	-0.177 ± 0.00191
x2 = 0.4068	-0.223 ± 0.00239
x2 = 0.4937	-0.248 ± 0.00263
x2 = 0.5018	-0.255 ± 0.00287
x2 = 0.6003	-0.285 ± 0.00311
x2 = 0.6996	-0.298 ± 0.00311
x2 = 0.7998	-0.28 ± 0.00311
x2 = 0.8999	-0.205 ± 0.00239
x2 = 0.9002	-0.207 ± 0.00239
x2 = 0.9498	-0.129 ± 0.00143

OCC(O)CO [glycerol] + O
Settings	excess molar enthalpy [kcal/mol]
x2 = 0.1028	-0.0363 ± 0.000717
x2 = 0.2192	-0.0698 ± 0.000956
x2 = 0.3038	-0.0925 ± 0.0012
x2 = 0.3964	-0.113 ± 0.00143
x2 = 0.5022	-0.131 ± 0.00143
x2 = 0.5956	-0.143 ± 0.00167
x2 = 0.6991	-0.146 ± 0.00167
x2 = 0.8005	-0.134 ± 0.00167
x2 = 0.8995	-0.087 ± 0.0012

OCCOCCOCCO [triethylene glycol] + CCO
Settings	excess molar enthalpy [kcal/mol]
x2 = 0.104	0.028 ± 0.000478
x2 = 0.2042	0.0586 ± 0.000717
x2 = 0.301	0.0837 ± 0.0012
x2 = 0.399	0.104 ± 0.0012
x2 = 0.5002	0.118 ± 0.00143
x2 = 0.599	0.121 ± 0.00143
x2 = 0.6993	0.112 ± 0.00143
x2 = 0.7995	0.0963 ± 0.0012
x2 = 0.8992	0.0621 ± 0.000956

OCCOCCOCCO [triethylene glycol] + O
Settings	excess molar enthalpy [kcal/mol]
x2 = 0.1291	-0.105 ± 0.0012
x2 = 0.2167	-0.188 ± 0.00215
x2 = 0.3145	-0.258 ± 0.00287
x2 = 0.4016	-0.32 ± 0.00335
x2 = 0.5006	-0.384 ± 0.00406
x2 = 0.6006	-0.431 ± 0.00454
x2 = 0.6999	-0.448 ± 0.00478
x2 = 0.7985	-0.422 ± 0.00454
x2 = 0.9013	-0.312 ± 0.00335
